Experimental data reported in patent publication US12077503B2, “Substituted cyclic amides and their use as herbicides” (FMC CORPORATION, priority 2015, dated 2024).
Values belong to the molecule of their own block, whether it stands above or below them.

Columns and labels:
[1] = system: crabgrass, large (Digitaria sanguinalis); assay: Test A postemergence; assay type: in vivo; settings: Digitaria sanguinalis, post-emergence, 240 h, Postemergence; for pest or weed control at 125 g/ha: 125 g ai/ha, visual rating about 10 d after treatment, read-out: Crabgrass, Large plant response rating (0 to 100 scale); for pest or weed control at 500 g/ha: 500 g ai/ha, visual injury, 0 to 100 scale (0 no effect, 100 complete control), approx. 10 d, read-out: Plant response rating, Crabgrass, Large
How it was run: (§1)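 Preemergence soil spray on seeded pots or post-emergence spray on 1–2 leaf plants, in loam–sand blend. Greenhouse ~10 d. Visual rating 0–100 against untreated plants.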

[2] = system: velvetleaf (Abutilon theophrasti); assay: Test A postemergence; assay type: in vivo; settings: Abutilon theophrasti, post-emergence, 240 h, Postemergence; for pest or weed control at 125 g/ha: 125 g ai/ha, visual rating about 10 d after treatment, read-out: Velvetleaf plant response rating (0 to 100 scale); for pest or weed control at 500 g/ha: 500 g ai/ha, visual injury, 0 to 100 scale (0 no effect, 100 complete control), approx. 10 d, read-out: Plant response rating, Velvetleaf
How it was run: as §1

[3] = system: morningglory (Ipomoea spp.); assay: Test A preemergence; assay type: in vivo; settings: Ipomoea, pre-emergence, 240 h, 0 to 100 scale (0 no effect, 100 complete control), read-out: Plant response rating, Morningglory; for pest or weed control at 500 g/ha: 500 g ai/ha, preemergence; for pest or weed control at 125 g/ha: Preemergence, 125 g ai/ha
How it was run: as §1

[4] = system: crabgrass, large (Digitaria sanguinalis); assay: Test A preemergence; assay type: in vivo; settings: Digitaria sanguinalis, pre-emergence, 240 h, 0 to 100 scale (0 no effect, 100 complete control), read-out: Plant response rating, Crabgrass, Large; for pest or weed control at 500 g/ha: 500 g ai/ha, preemergence; for pest or weed control at 125 g/ha: Preemergence, 125 g ai/ha
How it was run: as §1

[5] = system: wheat (Triticum aestivum); assay: Test A preemergence; assay type: in vivo; settings: Triticum aestivum, pre-emergence, 240 h, 0 to 100 scale (0 no effect, 100 complete control), read-out: Plant response rating, Wheat; for plant injury at 500 g/ha: 500 g ai/ha, preemergence; for plant injury at 125 g/ha: Preemergence, 125 g ai/ha
How it was run: as §1

[6] = system: corn (Zea mays); assay: Test A preemergence; assay type: in vivo; settings: Zea mays, pre-emergence, 240 h, 0 to 100 scale (0 no effect, 100 complete control); for Corn plant response rating (crop injury, 0 = no effect, 100 = complete kill) at 500 g/ha: 500 g ai/ha, preemergence; for Corn plant response rating (crop injury, 0 = no effect, 100 = complete kill) at 125 g/ha: Preemergence, 125 g ai/ha
How it was run: as §1

[7] = system: velvetleaf (Abutilon theophrasti); assay: Test A preemergence; assay type: in vivo; settings: Abutilon theophrasti, pre-emergence, 240 h, 0 to 100 scale (0 no effect, 100 complete control), read-out: Plant response rating, Velvetleaf; for pest or weed control at 500 g/ha: 500 g ai/ha, preemergence; for pest or weed control at 125 g/ha: Preemergence, 125 g ai/ha
How it was run: as §1

melting point: 186 to 188 °C
SMILES: N#Cc1ccc(NC(=O)C2C(=O)NCC2c2ccccc2)cc1 (stereo not drawn) [Compound 1355]
pest or weed control at 125 g/ha [1]: 0% | pest or weed control at 500 g/ha [1]: 0% | pest or weed control at 125 g/ha [2]: 0% | pest or weed control at 500 g/ha [2]: 0% | pest or weed control at 500 g/ha [3]: 0% | pest or weed control at 125 g/ha [3]: 0% | pest or weed control at 500 g/ha [4]: 0% | pest or weed control at 125 g/ha [4]: 0% | plant injury at 500 g/ha [5]: 0% | plant injury at 125 g/ha [5]: 0% | Corn plant response rating (crop injury, 0 = no effect, 100 = complete kill) at 500 g/ha [6]: 0% | Corn plant response rating (crop injury, 0 = no effect, 100 = complete kill) at 125 g/ha [6]: 0% | pest or weed control at 500 g/ha [7]: 0% | pest or weed control at 125 g/ha [7]: 0%

SMILES: O=C1NCC(c2ccccc2)C1C(=O)Nc1cccnc1 (stereo not drawn) [Compound 1356]
pest or weed control at 125 g/ha [1]: 0% | pest or weed control at 500 g/ha [1]: 0% | pest or weed control at 125 g/ha [2]: 0% | pest or weed control at 500 g/ha [2]: 0% | pest or weed control at 500 g/ha [3]: 0% | pest or weed control at 125 g/ha [3]: 0% | pest or weed control at 500 g/ha [4]: 0% | pest or weed control at 125 g/ha [4]: 0% | plant injury at 500 g/ha [5]: 0% | plant injury at 125 g/ha [5]: 0% | Corn plant response rating (crop injury, 0 = no effect, 100 = complete kill) at 500 g/ha [6]: 0% | Corn plant response rating (crop injury, 0 = no effect, 100 = complete kill) at 125 g/ha [6]: 0% | pest or weed control at 500 g/ha [7]: 0% | pest or weed control at 125 g/ha [7]: 0%

SMILES: O=C1NCC(c2ccccc2)C1C(=O)Nc1ccccc1Oc1ccccc1 (stereo not drawn) [Compound 1357]
pest or weed control at 125 g/ha [1]: 0% | pest or weed control at 500 g/ha [1]: 0% | pest or weed control at 125 g/ha [2]: 0% | pest or weed control at 500 g/ha [2]: 0% | pest or weed control at 500 g/ha [3]: 0% | pest or weed control at 125 g/ha [3]: 0% | pest or weed control at 500 g/ha [4]: 0% | pest or weed control at 125 g/ha [4]: 0% | plant injury at 500 g/ha [5]: 0% | plant injury at 125 g/ha [5]: 0% | Corn plant response rating (crop injury, 0 = no effect, 100 = complete kill) at 500 g/ha [6]: 0% | Corn plant response rating (crop injury, 0 = no effect, 100 = complete kill) at 125 g/ha [6]: 0% | pest or weed control at 500 g/ha [7]: 0% | pest or weed control at 125 g/ha [7]: 0%

melting point: 180 to 181 °C
SMILES: O=C1NCC(c2ccccc2)C1C(=O)Nc1ccccc1 (stereo not drawn) [Compound 1358]
pest or weed control at 125 g/ha [1]: 0% | pest or weed control at 500 g/ha [1]: 30% | pest or weed control at 125 g/ha [2]: 0% | pest or weed control at 500 g/ha [2]: 0% | pest or weed control at 125 g/ha [3]: 0% | pest or weed control at 500 g/ha [4]: 80% | pest or weed control at 125 g/ha [4]: 20% | plant injury at 500 g/ha [5]: 50% | plant injury at 125 g/ha [5]: 0% | Corn plant response rating (crop injury, 0 = no effect, 100 = complete kill) at 500 g/ha [6]: 0% | Corn plant response rating (crop injury, 0 = no effect, 100 = complete kill) at 125 g/ha [6]: 0% | pest or weed control at 500 g/ha [7]: 0% | pest or weed control at 125 g/ha [7]: 0%
